Measurements as given in ChEMBL document CHEMBL3297676, “Maximizing diversity from a kinase screen: identification of novel and selective pan-Trk inhibitors for chronic pain” (J Med Chem, 2014).
Calls of active or inactive are those of the source. The rule behind the calls is not given here.

Columns and labels:
[1] = biological target: T1, High affinity nerve growth factor receptor (Homo sapiens, UniProt P04629)
Target sequence in this assay (P04629 whole entry): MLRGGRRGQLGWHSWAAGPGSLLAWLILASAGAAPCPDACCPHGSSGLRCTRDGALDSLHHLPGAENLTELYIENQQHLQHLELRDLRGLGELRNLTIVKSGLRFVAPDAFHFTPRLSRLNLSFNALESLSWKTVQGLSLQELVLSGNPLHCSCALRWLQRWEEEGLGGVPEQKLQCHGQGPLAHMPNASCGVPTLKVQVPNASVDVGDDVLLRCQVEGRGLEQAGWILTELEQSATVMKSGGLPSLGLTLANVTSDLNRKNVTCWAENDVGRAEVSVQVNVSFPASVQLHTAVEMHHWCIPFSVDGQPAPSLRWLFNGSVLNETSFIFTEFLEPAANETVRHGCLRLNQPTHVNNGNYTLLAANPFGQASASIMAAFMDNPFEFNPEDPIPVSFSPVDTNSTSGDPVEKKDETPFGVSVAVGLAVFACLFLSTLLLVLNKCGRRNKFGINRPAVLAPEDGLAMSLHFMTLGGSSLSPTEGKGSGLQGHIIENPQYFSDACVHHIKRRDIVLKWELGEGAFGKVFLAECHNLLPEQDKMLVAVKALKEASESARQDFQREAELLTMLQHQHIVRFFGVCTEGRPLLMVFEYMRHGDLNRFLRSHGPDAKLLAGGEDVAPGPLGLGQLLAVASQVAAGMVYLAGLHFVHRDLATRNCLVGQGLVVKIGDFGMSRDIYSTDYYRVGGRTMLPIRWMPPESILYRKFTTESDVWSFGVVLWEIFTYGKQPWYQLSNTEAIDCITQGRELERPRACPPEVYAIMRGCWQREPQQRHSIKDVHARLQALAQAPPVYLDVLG
Description: Inhibition of phsophorylated TrkA (unknown origin) assessed as inhibition of fluorescently-labelled substrate phosphorylation by CALIPER enzymatic assay

[2] = biological target: T1, High affinity nerve growth factor receptor; remark: listed apart in the source
Target sequence in this assay (P04629 33-796 limits assumed): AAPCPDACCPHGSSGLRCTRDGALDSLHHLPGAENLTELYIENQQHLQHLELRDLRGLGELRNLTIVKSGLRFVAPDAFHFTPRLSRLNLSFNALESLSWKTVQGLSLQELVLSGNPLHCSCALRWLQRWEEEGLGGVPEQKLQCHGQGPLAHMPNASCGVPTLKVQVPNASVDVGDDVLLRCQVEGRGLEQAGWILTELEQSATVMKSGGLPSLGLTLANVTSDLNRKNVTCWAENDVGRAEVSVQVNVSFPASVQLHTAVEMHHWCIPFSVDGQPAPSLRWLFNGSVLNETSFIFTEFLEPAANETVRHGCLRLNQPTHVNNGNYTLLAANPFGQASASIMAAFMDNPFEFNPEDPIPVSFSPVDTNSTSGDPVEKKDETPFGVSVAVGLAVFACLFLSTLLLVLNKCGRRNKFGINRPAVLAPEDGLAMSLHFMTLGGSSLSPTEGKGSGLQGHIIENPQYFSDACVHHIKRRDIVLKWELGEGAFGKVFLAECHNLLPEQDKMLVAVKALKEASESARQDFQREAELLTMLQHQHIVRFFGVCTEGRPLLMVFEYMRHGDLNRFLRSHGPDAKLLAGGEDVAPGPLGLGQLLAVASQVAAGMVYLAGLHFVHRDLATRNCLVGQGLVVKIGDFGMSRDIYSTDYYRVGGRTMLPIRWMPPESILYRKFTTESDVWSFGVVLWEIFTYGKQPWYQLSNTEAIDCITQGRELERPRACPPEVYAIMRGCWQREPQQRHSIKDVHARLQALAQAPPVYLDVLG
Description: Binding affinity to His-tagged TrkA (unknown origin) assessed as half life after 1 hr by SPR method

[3] = biological target: T1, High affinity nerve growth factor receptor; remark: listed apart in the source
Target sequence in this assay (P04629 whole entry): as the sequence (P04629 whole entry) above
Description: Binding affinity to His-tagged TrkA (unknown origin) after 1 hr by SPR method

[4] = biological target: T1, High affinity nerve growth factor receptor; remark: listed apart in the source
Target sequence in this assay (P04629 whole entry): as above
Description: Inhibition of human TrkA expressed in human U2OS cells assessed as inhibition of NGF-induced maximum response after 1 hr by beta-galactosidase assay

[5] = biological target: T1, High affinity nerve growth factor receptor; experiment: Inhibition of purified TrkA cytoplasmic domain (unknown origin) by HTRF assay
Target sequence in this assay (P04629 whole entry): as above

Rattus norvegicus [6] = experiment: Antiinflammatory activity in Complete-Freunds adjuvant-induced Sprague-Dawley rat pain model assessed as reversal of mechanical hypersensitivity at 30 mg/kg, po bid for 7 days; assay type: functional, organism-based; parameters: dose 30 mg/kg
Rattus norvegicus [7] = experiment: Analgesic activity in po dosed Sprague-Dawley rat Chung spinal nerve ligation model assessed as reversal of mechanical hypersensitivity relative to control; assay type: functional, organism-based
[8] = Clearance in rat; assay type: ADME, organism-based; details: in vivo
[9] = Plasma concentration in Complete-Freunds adjuvant-induced Sprague-Dawley rat pain model at 10 mg/kg, po after 2 hrs; assay type: ADME, organism-based; parameters: dose 10 mg/kg, route oral
[10] = Plasma protein binding in rat; assay type: ADME, cell-free; details: read-out: PPB (converted)
Plasma [11] = experiment: Fraction unbound in plasma of Complete-Freunds adjuvant-induced Sprague-Dawley rat pain model at 100 mg/kg, po after 2 hrs; assay type: ADME, organism-based; parameters: dose 100 mg/kg, route oral; details: in vivo
Plasma [12] = experiment: Fraction unbound in plasma of Sprague-Dawley rat Chung spinal nerve ligation model assessed as reversal of mechanical hypersensitivity at 100 mg/kg, po; assay type: ADME, organism-based; parameters: dose 100 mg/kg, route oral; details: in vivo
[13] = Ratio of fraction unbound in plasma of Sprague-Dawley rat Chung spinal nerve ligation model assessed as reversal of mechanical hypersensitivity at 100 mg/kg, po to IC50 for human TrkA expressed in human U2OS cells; assay type: ADME, organism-based; parameters: dose 100 mg/kg, route oral; details: in vivo
Plasma [14] = experiment: Fraction unbound in plasma of Complete-Freunds adjuvant-induced Sprague-Dawley rat pain model at 10 mg/kg, po after 2 hrs; assay type: ADME, organism-based; parameters: dose 10 mg/kg, route oral; details: in vivo
Plasma [15] = experiment: Fraction unbound in plasma of Sprague-Dawley rat Chung spinal nerve ligation model assessed as reversal of mechanical hypersensitivity at 10 mg/kg, po; assay type: ADME, organism-based; parameters: dose 10 mg/kg, route oral; details: in vivo
Rattus norvegicus [16] = experiment: Analgesic activity in Sprague-Dawley rat Chung spinal nerve ligation model assessed as reversal of mechanical hypersensitivity at 30 mg/kg, po relative to control; assay type: functional
Rattus norvegicus [17] = experiment: Antiinflammatory activity in Complete-Freunds adjuvant-induced Sprague-Dawley rat pain model assessed as reversal of mechanical hypersensitivity at 100 mg/kg, po bid for 7 days; assay type: functional, organism-based; parameters: dose 100 mg/kg
Plasma [18] = experiment: Plasma concentration in Sprague-Dawley rat Chung spinal nerve ligation model assessed as reversal of mechanical hypersensitivity at 100 mg/kg, po; assay type: ADME, organism-based; parameters: dose 100 mg/kg, route oral; details: in vivo
[19] = Plasma concentration in Complete-Freunds adjuvant-induced Sprague-Dawley rat pain model at 100 mg/kg, po after 2 hrs; assay type: ADME, organism-based; parameters: dose 100 mg/kg, route oral
Plasma [20] = experiment: Plasma concentration in Sprague-Dawley rat Chung spinal nerve ligation model assessed as reversal of mechanical hypersensitivity at 10 mg/kg, po; assay type: ADME, organism-based; parameters: dose 10 mg/kg, route oral; details: in vivo
[21] = Ratio of fraction unbound in plasma of Sprague-Dawley rat Chung spinal nerve ligation model assessed as reversal of mechanical hypersensitivity at 10 mg/kg, po to IC50 for human TrkA expressed in human U2OS cells; assay type: ADME, organism-based; parameters: dose 10 mg/kg, route oral; details: in vivo
Plasma [22] = experiment: Fraction unbound in plasma of Sprague-Dawley rat Chung spinal nerve ligation model assessed as reversal of mechanical hypersensitivity at 30 mg/kg, po; assay type: ADME, organism-based; parameters: dose 30 mg/kg, route oral; details: in vivo
[23] = Ratio of fraction unbound in plasma of Complete-Freunds adjuvant-induced Sprague-Dawley rat pain model at 100 mg/kg, po after 2 hrs to IC50 for human TrkA expressed in human U2OS cells; assay type: ADME, organism-based; parameters: dose 100 mg/kg, route oral; details: in vivo
[24] = Ratio of fraction unbound in plasma of Complete-Freunds adjuvant-induced Sprague-Dawley rat pain model at 10 mg/kg, po after 2 hrs to IC50 for human TrkA expressed in human U2OS cells; assay type: ADME, organism-based; parameters: dose 10 mg/kg, route oral; details: in vivo
[25] = Plasma concentration in Complete-Freunds adjuvant-induced Sprague-Dawley rat pain model at 30 mg/kg, po after 2 hrs; assay type: ADME, organism-based; parameters: dose 30 mg/kg, route oral
[26] = Oral bioavailability in rat; assay type: ADME, organism-based; details: in vivo
[27] = Half life in rat; assay type: ADME, organism-based; details: in vivo
[28] = Ratio of fraction unbound in plasma of Sprague-Dawley rat Chung spinal nerve ligation model assessed as reversal of mechanical hypersensitivity at 30 mg/kg, po to IC50 for human TrkA expressed in human U2OS cells; assay type: ADME, organism-based; parameters: dose 30 mg/kg, route oral; details: in vivo
Plasma [29] = experiment: Plasma concentration in Sprague-Dawley rat Chung spinal nerve ligation model assessed as reversal of mechanical hypersensitivity at 30 mg/kg, po; assay type: ADME, organism-based; parameters: dose 30 mg/kg, route oral; details: in vivo
[30] = Ratio of fraction unbound in plasma of Complete-Freunds adjuvant-induced Sprague-Dawley rat pain model at 30 mg/kg, po after 2 hrs to IC50 for human TrkA expressed in human U2OS cells; assay type: ADME, organism-based; parameters: dose 30 mg/kg, route oral; details: in vivo
Plasma [31] = experiment: Fraction unbound in plasma of Complete-Freunds adjuvant-induced Sprague-Dawley rat pain model at 30 mg/kg, po after 2 hrs; assay type: ADME, organism-based; parameters: dose 30 mg/kg, route oral; details: in vivo

## CC(C)N(Cc1cccc(-c2nccs2)c1)C(=O)Nc1ccc(OC(F)(F)F)cc1
[1]
  IC50: 132 nM
[2]
  T1/2: 0.1 h
[3]
  Kd: 63 nM
[4]
  IC50: 56 nM

## N#Cc1ccc2c(c1)cc(C(=O)O)n2CCOc1ccc(OC(F)(F)F)cc1
[1]
  IC50: 118 nM
[4]
  IC50: 150 nM

## CC(C)N(Cc1c[nH]c2ncccc12)C(=O)Nc1ccc(OC(F)(F)F)cc1
[1]
  IC50: 11 nM
[4]
  IC50: 3 nM

## Cc1cn(-c2ccc(-c3cn(CC(=O)Nc4cc(C5CC5)nn4-c4ccccc4)nn3)cc2)cn1
[4]
  IC50: 9 nM
[5]
  IC50: 60 nM

## O=C(O)c1cc2cc(-c3cc[nH]n3)ccc2n1CCOc1ccc(OC(F)(F)F)cc1
[1]
  IC50: 51 nM
[4]
  IC50: 29 nM

## O=C(O)c1cc2cnccc2n1CCOc1ccc(OC(F)(F)F)cc1
[1]
  IC50: 12300 nM
[4]
  IC50: 15800 nM

## CCOc1cccc(-c2nccc3c2cc(C(=O)O)n3CCOc2ccc(OC(F)(F)F)cc2)c1
[1]
  IC50: 348 nM
[4]
  IC50: 59 nM

## COc1ccc2cc([C@H](C)C(=O)O)ccc2c1
Rattus norvegicus [6]
  inhibition: Active

## CN1CCN(c2ccc(Nc3ncnc4ccc(NCc5cccc(Cl)c5)nc34)cc2)CC1
[1]
  IC50: 1690 nM
[3]
  Kd: 63 nM
[5]
  IC50: 11 nM

## O=C(NCc1cccc(-c2nccs2)c1)Nc1ccc(OC(F)(F)F)cc1
[1]
  IC50: > 100000 nM

## CCOc1cccc(-c2nccc3c2cc(C(=O)O)n3CCOc2ccccc2)c1
[1]
  IC50: 2070 nM
[4]
  IC50: 109 nM

## CCOc1cccc(-c2nccc3c2cc(C(=O)O)n3CCOc2ccc(Cl)cc2)c1
[1]
  IC50: 653 nM
[2]
  T1/2: 2.13 h
[3]
  Kd: 3.5 nM
[4]
  IC50: 200 nM

## CC(C)C[C@H](CN)CC(=O)O
Rattus norvegicus [7]
  inhibition: Active

## Cc1cn2cc(CNc3ncnc4ccc(N5CCC[C@@H]5c5cc(F)ccc5F)nc34)nc2s1
[1]
  IC50: 13 nM
[5]
  IC50: 1.5 nM

## c1cncc(CNc2ccc3ncnc(Nc4ccc(N5CCOCC5)cc4)c3n2)c1
[5]
  IC50: 997 nM

## CC(C)(C)c1cc(NC(=O)Cn2cc(-c3ccc(-n4ccnc4)nc3)nn2)n(-c2cccnc2)n1
[8]
  clearance: 16 mL/min/kg
[9]
  concentration at 2 h: 1000 nM
[10]
  fraction unbound: 0.005
Plasma [11]
  Cp(f): 80 nM
Plasma [12]
  Cp(f): 115 nM
[13]
  Ratio: 23
Plasma [14]
  Cp(f): 5 nM
Plasma [15]
  Cp(f): 5 nM
Rattus norvegicus [16]
  inhibition in vivo at 30 mg/kg: 50%
Rattus norvegicus [17]
  inhibition: Active
Plasma [18]
  concentration: 23000 nM
[19]
  concentration at 2 h: 16000 nM
Plasma [20]
  concentration: 1000 nM
[21]
  Ratio: 1
Plasma [22]
  Cp(f): 34 nM
[23]
  Ratio: 16
[2]
  T1/2: 1.13 h
[3]
  Kd: 0.94 nM
[24]
  Ratio: 1
[4]
  IC50: 7 nM
[25]
  concentration at 2 h: 4000 nM
[26]
  bioavailability: 30%
[27]
  half-life: 2.6 h
[28]
  Ratio: 6
Plasma [29]
  concentration: 6700 nM
[5]
  IC50: 9 nM
Rattus norvegicus [6]
  inhibition: Active
[30]
  Ratio: 4
Plasma [31]
  Cp(f): 20 nM
